Reference: patent US5116877A, “Pharmaceutical use for cinnamamide derivatives” (Taisho Pharmaceutical Co., Ltd., priority 1989, dated 1992)

Columns and labels:
[1] = tested on: mesocephalous decerebrate rididity; assay: Inhibition test of the mesocephalous decerebrate rigidity; type: in vivo, male Wistar rats; settings: rat
Description: Experiment 1 [Inhibition test of the mesocephalous decerebrate rididity]
The rigidity animals were prepared according to the method of Ono et al [Gen. Pharm., vol. 18, page 57-59 (1987)].
Four male Wistar rats weighing 250 to 350 g were used for each group. The animals were anesthetized with ethyl ether and fixed on a brain stereotaxic apparatus to break the midbrain bilaterally (APO, V-3, L ±1.5). The advanced rigidity occurred in the hind limb with awaking from the ethyl ether anesthesia. The test drugs [A; (E)-N-cyclopropyl-3-(3-chlorophenyl)-2-butenamide, B; (E)-N-cyclopropyl-3-(3-fluorophenyl)-2-butenamide and C; cinflumide] dissolved in propylene glycol were each administered intravenously in the amount of 5 mg/kg or 10 mg/kg (0.1 ml per 100 g of rat), and these test drugs suspended in 0.4% aqueous carboxymethylcellulose solution were each administered intraduodenally in the amount of 50 mg/kg (0.1 ml per 100 g of rat) to determine the inhibition time of the rigidity.

[2] = tested on: spontaneous motor activity; assay: Spontaneous motor activity test; type: in vivo, male ICR mice; settings: mouse
Description: Experiment 4 [Spontaneous motor activity test]
Six male ICR mice weighing 20-30 g were used as the test animals for each group. The test drugs [A: (E)-N-cyclopropyl-3-(3 chlorophenyl)-2-butenamide and B: (E)-N-cyclopropyl-3-(3-fluorophenyl)-2-butenamide] suspended in 0.4% aqueous carboxymethylcellulose solution were each administered orally to mice in the amounts of 50, 70.7 and 100 mg/kg (0.1 ml per 10 g of mouse). The control group were administered with 0.4% aqueous carboxymethylcellulose solution only. After 15 minute, mice were placed in ANIMEX apparatus (manufactured by Muromachi Kikai K.K.) to determine the spontaneous moter activity for 30 minutes

[3] = J. Med. Chem., vol. 9 (No. 5), 675-681 (1966); cited from earlier work
[4] = tested on: Straub tail reaction; assay: Straub tail reaction (morphine-induced); type: in vivo, male ICR mice; settings: mouse, morphine hydrochloride 15 mg/kg s.c.
Description: Experiment 3 [Straub tail reaction]
Test was carried out according to the method of Ellis et al [Neuropharmacology, vol. 13, page 211 to (1974)].
Six male ICR mice weighing 20-30 g were used as the animals for each group. The drugs [A; (E)-N-cyclopropyl-3-(3-chlorophenyl)-2-butenamide, and C; cinflumide] suspended in 0.4% aqueous carboxymethylcellulose solution were each administered orally to the animals in the amounts of 50, 70.7, 100 and 140 mg/kg (0.1 ml per 10 g of mouse). After 15 minutes, 15 mg/kg of morphine hydrochloride were administered subcutaneously. After 30 minutes, the tail-raising reaction was determined. The muscle relaxation activity was judged as positive in case where the drug produces the value of less than 45 degrees of the tail-raising's angle, and the inhibition rate was culculated.

[5] = tested on: Anemic Decerebrate rigidity; assay: Inhibition of anemic decerebrate rigidity; type: in vivo, male Wistar rats; settings: rat, in polyethylene glycol 400
Description: Experiment 2[Inhibition of Anemic Decerebrate rigidity]
The rigidity animals were prepared according to the method of Fukuda et al [Japan J. Pharmacol., vol. 24, page 810-813 (1974)].
Four male Wistar rats weighing 250 to 350 g were used for each group.
The animals were anesthetized with ethyl ether and carotid artery was ligated bilaterally. A round hole was digged in the suboccipital skeleton and the basal artery was coagulated using a bipolar electrocoagulator. The advanced rigidity occurred on the fore limb with awaking from the ethyl ether anesthesia. The drugs [A; (E)-N-cyclopropyl-3-(3-chlorophenyl)-2-butenamide, B; (E)-N-cyclopropyl-3-(3-fluorophenyl)-2-butenamide, and C; cinflumide] dissolved in polyethylene glycol 400 were each administered intravenously in the amount of 5 mg/kg or 10 mg/kg (0.1 ml per 100 g of rat) to determine the inhibition time of the rigidity.

[6] = Acute toxicity test; type: in vivo, male ICR mice; settings: mouse
Description: Experiment 5 [Acute toxicity test]
Ten male ICR mice weighing 25 to 34 g were used. (E)-N-cyclopropyl-3-(3-chlorophenyl)-2-butenamide suspended in 0.4% aqueous carboxymethylcellulose solution was each administered orally to mice in the amount of 0.1 ml per 10 g of mice. […] The LD50 values were more than 1 g/kg p.o.

[7] = Japanese Patent Publication No. 60-56700; among known cinnamamide derivatives; cited from earlier work
[8] = 5 mg/kg i.v., in propylene glycol
[9] = 10 mg/kg i.v., in propylene glycol
[10] = 50 mg/kg i.d., in 0.4% aqueous carboxymethylcellulose
[11] = 70.7 mg/kg p.o., control of A 2116.0 ± 256.6, of B 2128.7 ± 228.0
[12] = 50 mg/kg (head: i.v.; text: orally)
[13] = 70.7 mg/kg (head: i.v.; text: orally)
[14] = 100 mg/kg (head: i.v.; text: orally)
[15] = 140 mg/kg (head: i.v.; text: orally)

Structure (SMILES) | length of time during which the inhibition action occurs (inhibition time of the rigidity) [1, 8] [min] | length of time during which the inhibition action occurs (inhibition time of the rigidity) [1, 9] [min] | length of time during which the inhibition action occurs (inhibition time of the rigidity) [1, 10] [min] | Spontaneous motor activity ([2]; 50 mg/kg p.o., control of A 2116.0 ± 256.6) [Counts/30 minutes] | Spontaneous motor activity [2, 11] [Counts/30 minutes] | sedative or taming action [3] | inhibition rate (Straub tail reaction) [4, 12] [%] | inhibition rate (Straub tail reaction) [4, 13] [%] | inhibition rate (Straub tail reaction) [4, 14] [%] | inhibition rate (Straub tail reaction) [4, 15] [%] | length of time during which the inhibition occurs (inhibition time of the rigidity) ([5]; 5 mg/kg i.v.) [min] | length of time during which the inhibition occurs (inhibition time of the rigidity) ([5]; 10 mg/kg i.v.) [min] | death (survivals observed for 7 days) ([6]; 1 g/kg p.o.) | LD50 at 168 h ([6]; in vivo, po) [mg/kg] | Spontaneous motor activity ([2]; 100 mg/kg p.o., control of B 2128.7 ± 228.0) [Counts/30 minutes] | muscle relaxing activity [7]
C/C(=C\C(=O)NC1CC1)c1cccc(Cl)c1 [A, (E)-N-cyclopropyl-3-(3-chlorophenyl)-2-butenamide] | 13 | 37 | 36 | 1736.0 ± 366.6 | 1570.2 ± 326.9 | showing sedative or taming action | 40 | 40 | 100 | 100 | 9 | 13 | no death occurred | > 1000 |  | 
C/C(=C\C(=O)NC1CC1)c1cccc(F)c1 [B, (E)-N-cyclopropyl-3-(3-fluorophenyl)-2-butenamide] | 6 | 12 | 53 |  | 2264.2 ± 506.0 |  |  |  |  |  | 8 | 12 |  |  | 1667.8 ± 152.4 | 
O=C(/C=C/c1cccc(F)c1)NC1CC1 [C, cinflumide, reference compound] | 0 | 3 | 0 |  |  |  | 0 | 20 | 80 | 100 |  | 8 |  |  |  | most preferred effect
